Experimental data: US11339161B2, “Triazolo pyridines as modulators of gamma-secretase” (Boehringer Ingelheim International GmbH, priority 2017, dated 2022)
Where two headings read alike, the source gives them in different places.

What was measured:
MAP4K2 (GCK) = target: T1, MAP4K2 (GCK) (Homo sapiens, UniProt Q12851); assay: Z'-LYTE SelectScreen biochemical kinase assay MAP4K2 (GCK)
T1 sequence (Q12851 1-820): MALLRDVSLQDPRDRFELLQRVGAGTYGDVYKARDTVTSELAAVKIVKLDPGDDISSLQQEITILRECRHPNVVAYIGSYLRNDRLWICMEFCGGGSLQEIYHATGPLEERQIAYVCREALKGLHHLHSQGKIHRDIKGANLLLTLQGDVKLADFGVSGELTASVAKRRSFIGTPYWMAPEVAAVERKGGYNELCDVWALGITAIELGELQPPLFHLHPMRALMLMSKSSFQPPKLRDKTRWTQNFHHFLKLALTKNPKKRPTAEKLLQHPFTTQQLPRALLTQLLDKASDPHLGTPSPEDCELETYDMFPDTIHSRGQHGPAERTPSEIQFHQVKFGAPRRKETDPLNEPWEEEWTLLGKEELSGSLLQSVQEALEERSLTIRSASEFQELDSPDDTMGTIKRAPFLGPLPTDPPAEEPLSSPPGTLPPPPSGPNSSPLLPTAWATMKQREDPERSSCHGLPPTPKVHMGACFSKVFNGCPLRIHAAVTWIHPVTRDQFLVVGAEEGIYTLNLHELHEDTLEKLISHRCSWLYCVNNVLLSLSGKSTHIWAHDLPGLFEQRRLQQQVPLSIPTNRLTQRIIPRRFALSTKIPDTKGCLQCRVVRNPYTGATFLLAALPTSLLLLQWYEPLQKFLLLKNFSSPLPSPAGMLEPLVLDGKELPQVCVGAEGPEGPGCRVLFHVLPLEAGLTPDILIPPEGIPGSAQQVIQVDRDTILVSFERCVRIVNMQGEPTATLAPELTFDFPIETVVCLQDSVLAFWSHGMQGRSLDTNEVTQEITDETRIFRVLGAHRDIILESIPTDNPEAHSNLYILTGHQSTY
Description: (§1) Thermo Fisher Scientific SelectScreen™ Biochemical Kinase Profiling Service Z′-LYTE™ Screening Protocol and Assay Conditions Assay Theory
(§2) The […] biochemical assay employs a fluorescence-based, coupled-enzyme format and is based on the differential sensitivity of phosphorylated and non-phosphorylated peptides to proteolytic cleavage. The peptide substrate is labeled with two fluorophores—one at each end—that make up a FRET pair. In the primary reaction, the kinase transfers the gamma-phosphate of ATP to a single tyrosine, serine or threonine residue in a synthetic FRET-peptide. In the secondary reaction, a site-specific protease recognizes and cleaves non-phosphorylated FRET-peptides. Phosphorylation of FRET-peptides suppresses cleavage by the Development Reagent. Cleavage disrupts FRET between the donor (i.e., coumarin) and acceptor (i.e., fluorescein) fluorophores on the FRET-peptide, whereas uncleaved, phosphorylated FRET-peptides maintain FRET. A ratiometric method, which calculates the ratio (Emission Ratio=Coumarin emission (445 nm)/Fluorescein emission (520 nm)) of donor emission to acceptor emission after excitation of the donor fluorophore at 400 nm, is used to quantitate reaction progress, as shown in the equation below. A significant benefit of this ratiometric method for quantitating reaction progress is the elimination of well-to-well variations in FRET-peptide concentration and signal intensities. As a result, the assay yields very high Z′-factor values (>0.7) at a low percent phosphorylation. Both cleaved and uncleaved FRET-peptides contribute to the fluorescence signals and therefore to the Emission Ratio. The extent of phosphorylation of the FRET-peptide can be calculated from the Emission Ratio. The Emission Ratio will remain low if the FRET-peptide is phosphorylated (i.e., no kinase inhibition) and will be high if the FRET-peptide is non-phosphorylated (i.e., kinase inhibition).
(§3) The Test Compounds are screened in 1% DMSO (final) in the well. For 10 point titrations, 3-fold serial dilutions are conducted from the starting concentration of the customer's choosing.
(§4) All Peptide/Kinase Mixtures are diluted to a 2× working concentration in the appropriate Kinase Buffer (see section Kinase Specific Assay Conditions for a complete description).
(§5) All ATP Solutions are diluted to a 4× working concentration in Kinase Buffer (50 mM HEPES pH 7.5, 0.01% BRIJ-35, 10 mM MgCl2, 1 mM EGTA). ATP Km apparent is previously determined using a Z″-LYTE assay.
(§6) The Development Reagent is diluted in Development Buffer (see section Kinase-Specific Assay Conditions—Direct and Cascade for a complete description).
(§7) Bar-coded Corning, low volume NBS, black 384-well plate (Corning Cat. #4514) • 1. 100 nL—100× Test Compound in 100% DMSO • 2. 2.4 μL—Kinase buffer • 3. 5 μL—2× Peptide/Kinase Mixture • 4. 2.5 μL—4×ATP Solution • 5. 30—second plate shake • 6. 60—minute Kinase Reaction incubation at room temperature • 7. 5 μL—Development Reagent Solution • 8. 30—second plate shake • 9. 60—minute Development Reaction incubation at room temperature • 10. Read on fluorescence plate reader and analyze the data Z′-LYTE Assay Controls
(§8) SelectScreen Kinase Profiling Service uses XLfit from IDBS. The dose response curve is curve fit to model number 205 (sigmoidal dose-response model).
The 2×MAP4K2 (GCK)/Ser/Thr 07 mixture is prepared in 50 mM HEPES pH 7.5, 0.01% BRIJ-35, 10 mM MgCl2, 1 mM EGTA. The final 10 μL Kinase Reaction consists of 0.11-3 ng MAP4K2 (GCK) and 2 μM Ser/Thr 07 in 50 mM HEPES pH 7.5, 0.01% BRIJ-35, 10 mM MgCl2, 1 mM EGTA. After the 1 hour Kinase Reaction incubation, 5 μL of a 1:45000 dilution of Development Reagent A is added.

PTK2 (FAK) = PTK2 (FAK) (Homo sapiens, UniProt Q05397); assay: Z'-LYTE SelectScreen biochemical kinase assay PTK2 (FAK)
Description: as §1, §2, §3, §4, §5, §6, §7, §8
The 2×PTK2 (FAK)/Tyr 07 mixture is prepared in 50 mM HEPES pH 7.5, 0.01% BRIJ-35, 10 mM MgCl2, 1 mM EGTA. The final 10 μL Kinase Reaction consists of 12.5-100 ng PTK2 (FAK) and 2 μM Tyr 07 in 50 mM HEPES pH 7.5, 0.01% BRIJ-35, 10 mM MgCl2, 1 mM EGTA. After the 1 hour Kinase Reaction incubation, 5 μL of a 1:16 dilution of Development Reagent B is added.

[1] = 10 μmolar compound concentration, ATP at Km app, read-out: MAP4K2 (GCK) inhibition
[2] = read-out: % Inhibition mean MAP4K2 (GCK)
[3] = 10 μmolar compound concentration, ATP at Km app, read-out: PTK2 (FAK) inhibition
[4] = read-out: % Inhibition mean PTK2 (FAK)

Chain of PTK2 (FAK) (Q05397 whole entry): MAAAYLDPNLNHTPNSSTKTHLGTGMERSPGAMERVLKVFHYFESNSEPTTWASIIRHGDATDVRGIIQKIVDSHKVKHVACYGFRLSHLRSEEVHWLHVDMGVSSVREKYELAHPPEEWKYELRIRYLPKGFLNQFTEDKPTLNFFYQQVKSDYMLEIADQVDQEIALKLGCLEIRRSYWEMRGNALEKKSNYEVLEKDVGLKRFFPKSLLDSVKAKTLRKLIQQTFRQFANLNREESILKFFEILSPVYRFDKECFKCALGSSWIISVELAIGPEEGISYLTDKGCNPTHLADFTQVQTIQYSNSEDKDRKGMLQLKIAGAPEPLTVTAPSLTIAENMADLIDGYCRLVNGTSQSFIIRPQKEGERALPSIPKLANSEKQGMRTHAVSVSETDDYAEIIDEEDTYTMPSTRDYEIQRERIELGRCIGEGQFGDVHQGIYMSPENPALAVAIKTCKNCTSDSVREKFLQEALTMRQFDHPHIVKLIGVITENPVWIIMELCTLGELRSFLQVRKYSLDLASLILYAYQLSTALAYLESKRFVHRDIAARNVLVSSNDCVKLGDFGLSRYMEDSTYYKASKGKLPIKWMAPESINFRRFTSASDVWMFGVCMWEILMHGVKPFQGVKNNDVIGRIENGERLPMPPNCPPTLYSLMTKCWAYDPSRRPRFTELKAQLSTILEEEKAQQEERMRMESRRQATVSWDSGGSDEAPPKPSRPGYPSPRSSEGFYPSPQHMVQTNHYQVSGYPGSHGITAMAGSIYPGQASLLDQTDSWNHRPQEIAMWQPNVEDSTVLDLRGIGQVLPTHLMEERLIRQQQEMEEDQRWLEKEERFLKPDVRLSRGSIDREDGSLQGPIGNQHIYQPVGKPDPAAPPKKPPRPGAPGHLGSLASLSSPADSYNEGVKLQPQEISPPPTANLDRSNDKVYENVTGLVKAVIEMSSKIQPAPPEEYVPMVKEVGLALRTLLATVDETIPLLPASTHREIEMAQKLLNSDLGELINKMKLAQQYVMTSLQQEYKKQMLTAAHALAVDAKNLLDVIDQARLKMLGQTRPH

## CCn1ncc2c1CCC(Nc1nc3c(-c4ccc(OC)nc4)cccn3n1)C2 (stereo not drawn) [Example 71, (1-Ethyl-4,5,6,7-tetrahydro-1H-indazol-5-yl)-[8-(6-methoxy-pyridin-3-yl)-[1,2,4]triazolo[1,5-a]pyridine-2-yl]-amine]
MAP4K2 (GCK); [1]
  inhibition at 10 µM: < 40%
MAP4K2 (GCK); [2]
  inhibition at 10 µM: 26%
PTK2 (FAK); [3]
  inhibition at 10 µM: < 40%
PTK2 (FAK); [4]
  inhibition at 10 µM: 30%

## CCCCCn1ncc2c1CCC(Nc1nc3c(-c4ccc(F)cc4C)cccn3n1)C2 (stereo not drawn) [Example 47, [8-(4-fluoro-2-methyl-phenyl)-[1,2,4]triazolo[1,5-a]pyridine-2-yl]-(1-pentyl-4,5,6,7-tetrahydro-1H-indazol-5-yl)-amine]
MAP4K2 (GCK); [1]
  inhibition at 10 µM: < 40%
MAP4K2 (GCK); [2]
  inhibition at 10 µM: 11%
PTK2 (FAK); [3]
  inhibition at 10 µM: < 40%
PTK2 (FAK); [4]
  inhibition at 10 µM: 19%

## CCn1nc(Cl)c2c1CCC(Nc1nc3c(-c4ccc(F)cc4C)cccn3n1)C2 (stereo not drawn) [Example 48, (3-Chloro-1-ethyl-4,5,6,7-tetrahydro-1H-indazol-5-yl)-[8-(4-fluoro-2-methyl-phenyl)-[1,2,4]triazolo[1,5-a]pyridine-2-yl]-amine]
MAP4K2 (GCK); [1]
  inhibition at 10 µM: < 40%
MAP4K2 (GCK); [2]
  inhibition at 10 µM: 16%
PTK2 (FAK); [3]
  inhibition at 10 µM: < 40%
PTK2 (FAK); [4]
  inhibition at 10 µM: 24%

## Cc1cc(F)ccc1-c1cccn2nc(NC3CCc4c(cnn4C)C3)nc12 (stereo not drawn) [Example 10, [8-(4-fluoro-2-methyl-phenyl)-[1,2,4]triazolo[1,5-a]pyridine-2-yl]-(1-methyl-4,5,6,7-tetrahydro-1H-indazol-5-yl)-amine]
MAP4K2 (GCK); [1]
  inhibition at 10 µM: < 40%
MAP4K2 (GCK); [2]
  inhibition at 10 µM: 8%
PTK2 (FAK); [3]
  inhibition at 10 µM: < 40%
PTK2 (FAK); [4]
  inhibition at 10 µM: 13%

## CCn1ncc2c1CCC(Nc1nc3c(-c4cccc(Cl)c4)cccn3n1)C2 (stereo not drawn) [Example 59, [8-(3-Chloro-phenyl)-[1,2,4]triazolo[1,5-a]pyridine-2-yl]-(1-ethyl-4,5,6,7-tetrahydro-1H-indazol-5-yl)-amine]
MAP4K2 (GCK); [1]
  inhibition at 10 µM: < 40%
MAP4K2 (GCK); [2]
  inhibition at 10 µM: 22%
PTK2 (FAK); [3]
  inhibition at 10 µM: < 40%
PTK2 (FAK); [4]
  inhibition at 10 µM: 16%

## Cc1cc(F)ccc1-c1cccn2nc(NC3CCc4c(cnn4CC(C)C)C3)nc12 (stereo not drawn) [Example 45, [8-(4-fluoro-2-methyl-phenyl)-[1,2,4]triazolo[1,5-a]pyridine-2-yl]-(1-isobutyl-4,5,6,7-tetrahydro-1H-indazol-5-yl)-amine]
MAP4K2 (GCK); [1]
  inhibition at 10 µM: < 40%
MAP4K2 (GCK); [2]
  inhibition at 10 µM: 24%
PTK2 (FAK); [3]
  inhibition at 10 µM: < 40%
PTK2 (FAK); [4]
  inhibition at 10 µM: 20%

## CCCCn1ncc2c1CCC(Nc1nc3c(-c4ccc(F)cc4C)cccn3n1)C2 (stereo not drawn) [Example 46, [8-(4-fluoro-2-methyl-phenyl)-[1,2,4]triazolo[1,5-a]pyridine-2-yl]-(1-butyl-4,5,6,7-tetrahydro-1H-indazol-5-yl)-amine]
MAP4K2 (GCK); [1]
  inhibition at 10 µM: < 40%
MAP4K2 (GCK); [2]
  inhibition at 10 µM: 19%
PTK2 (FAK); [3]
  inhibition at 10 µM: < 40%
PTK2 (FAK); [4]
  inhibition at 10 µM: 24%

## CCn1ncc2c1CCC(Nc1nc3c(-c4ccc(F)cc4)cccn3n1)C2 (stereo not drawn) [Example 55, (1-Ethyl-4,5,6,7-tetrahydro-1H-indazol-5-yl)-[8-(4-fluoro-phenyl)-[1,2,4]triazolo[1,5-a]pyridine-2-yl]-amine]
MAP4K2 (GCK); [1]
  inhibition at 10 µM: < 40%
MAP4K2 (GCK); [2]
  inhibition at 10 µM: 30%
PTK2 (FAK); [3]
  inhibition at 10 µM: < 40%
PTK2 (FAK); [4]
  inhibition at 10 µM: 8%

## CCn1ncc2c1CCC(Nc1nc3c(-c4cncc(OC)c4)cccn3n1)C2 (stereo not drawn) [Example 70, (1-Ethyl-4,5,6,7-tetrahydro-1H-indazol-5-yl)-[8-(5-methoxy-pyridin-3-yl)-[1,2,4]triazolo[1,5-a]pyridine-2-yl]-amine]
MAP4K2 (GCK); [1]
  inhibition at 10 µM: < 40%
MAP4K2 (GCK); [2]
  inhibition at 10 µM: 7%
PTK2 (FAK); [3]
  inhibition at 10 µM: < 40%
PTK2 (FAK); [4]
  inhibition at 10 µM: 14%

## CC1(C)NC(=O)c2ccc(Nc3nc4c(-c5cccc(F)c5)cccn4n3)cc21 [Cpd. 302 in WO09155551, reference compound]
MAP4K2 (GCK); [1]
  inhibition at 10 µM: > 80%
MAP4K2 (GCK); read-out: % Inhibition mean
  inhibition at 10 µM: 99%
PTK2 (FAK); [3]
  inhibition at 10 µM: > 80%
PTK2 (FAK); read-out: % Inhibition mean
  inhibition at 10 µM: 86%

## Cc1cc(F)ccc1-c1cccn2nc(NC3CCc4cnn(C)c4C3)nc12 (stereo not drawn) [Example 40, [8-(4-Fluoro-2-methyl-phenyl)-[1,2,4]triazolo[1,5-a]pyridine-2-yl]-(1-methyl-4,5,6,7-tetrahydro-1H-indazol-6-yl)-amine]
MAP4K2 (GCK); [1]
  inhibition at 10 µM: < 40%
MAP4K2 (GCK); [2]
  inhibition at 10 µM: 13%
PTK2 (FAK); [3]
  inhibition at 10 µM: < 40%
PTK2 (FAK); [4]
  inhibition at 10 µM: 18%

## Cc1cc(F)ccc1-c1cccn2nc(Nc3ccc4c(cnn4C)c3)nc12 [Example 9, [8-(4-fluoro-2-methyl-phenyl)-[1,2,4]triazolo[1,5-a]pyridine-2-yl]-(1-methyl-1H-indazol-5-yl)-amine]
MAP4K2 (GCK); [1]
  inhibition at 10 µM: 40 to 80%
MAP4K2 (GCK); [2]
  inhibition at 10 µM: 43%
PTK2 (FAK); [3]
  inhibition at 10 µM: < 40%
PTK2 (FAK); [4]
  inhibition at 10 µM: 7%

## CCn1ncc2c1C(C)CC(Nc1nc3c(-c4cc(F)c(F)c(F)c4)cccn3n1)C2 (stereo not drawn) [Example 49, (1-Ethyl-7-methyl-4,5,6,7-tetrahydro-1H-indazol-5-yl)-[8-(3,4,5-trifluoro-phenyl)-[1,2,4]triazolo[1,5-a]pyridine-2-yl]-amine]
MAP4K2 (GCK); [1]
  inhibition at 10 µM: < 40%
MAP4K2 (GCK); [2]
  inhibition at 10 µM: 17%
PTK2 (FAK); [3]
  inhibition at 10 µM: < 40%
PTK2 (FAK); [4]
  inhibition at 10 µM: 32%

## CCn1ncc2c1CCC(Nc1nc3c(-c4ccccc4)cccn3n1)C2 (stereo not drawn) [Example 57, (1-Ethyl-4,5,6,7-tetrahydro-1H-indazol-5-yl)-(8-phenyl-[1,2,4]triazolo[1,5-a]pyridine-2-yl)-amine]
MAP4K2 (GCK); [1]
  inhibition at 10 µM: < 40%
MAP4K2 (GCK); [2]
  inhibition at 10 µM: 13%
PTK2 (FAK); [3]
  inhibition at 10 µM: < 40%
PTK2 (FAK); [4]
  inhibition at 10 µM: 16%

## CCCn1ncc2c1CCC(Nc1nc3c(-c4ccc(F)cc4C)cccn3n1)C2 (stereo not drawn) [Example 43, [8-(4-fluoro-2-methyl-phenyl)-[1,2,4]triazolo[1,5-a]pyridine-2-yl]-(1-propyl-4,5,6,7-tetrahydro-1H-indazol-5-yl)-amine]
MAP4K2 (GCK); [1]
  inhibition at 10 µM: < 40%
MAP4K2 (GCK); [2]
  inhibition at 10 µM: 9%
PTK2 (FAK); [3]
  inhibition at 10 µM: < 40%
PTK2 (FAK); [4]
  inhibition at 10 µM: 19%
